Data taken from patent publication US20260022143A1, “Cyclic Peptide Inhibitors of IL-23” (JANSSEN PHARMACEUTICA NV, priority 2022, published 2026).
Starred links: 1 amine or outer side, 2 acyl side, 3 side chain; linkers in the order of their positions; H or OH if unused. Positions of bridges follow the written chain, without caps; N, C: chain ends. Non-standard residues stand in square brackets, D forms with d. Residues, ends and D or L forms follow the SMILES beside them. Groups on a side chain read outwards from the residue. *: point of attachment. Me3N+(CH2)2O(CH2)2O(CH2)2CO = C[N+](C)(C)CCOCCOCCC(=O)*; Trp(7-Me) = Cc1cccc2c(C[C@H](N)C(=O)O)c[nH]c12; γGlu = O=C(O)[C@H](CCC(=O)[*:2])N[*:1]; 2Nal = N[C@@H](Cc1ccc2ccccc2c1)C(=O)O; PEG6 = NCCOCCOCCOCCOCCOCCOCCC(=O)O; 3Pal = N[C@@H](Cc1cccnc1)C(=O)O; Myristoyl = CCCCCCCCCCCCCC(=O)*; Cit = NC(=O)NCCC[C@H](N)C(=O)O; Lys(Me) = CNCCCC[C@H](N)C(=O)O; NMeK = CN[C@@H](CCCCN)C(=O)O; Pen = CC(C)(S)[C@H](N)C(=O)O; Lauroyl = CCCCCCCCCCCC(=O)*; Thp = NC1(C(=O)O)CCOCC1; X3 = C[N+](C)(C)CCCCC*; AEEA = NCCOCCOCC(=O)O; Sar = CNCC(=O)O

Tests used:
[1] = Exposed Polar Surface Area (EPSA); type: physicochemical; settings: SFC on Chirex 3014 column; sample 1 mM DMSO stock; read-out: EPSA
In short: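 EPSA, in Å^2, is read from SFC retention time through a linear relationship established with eight calibration standards. Separation uses a Chirex 3014 stationary phase, 35 °C, 14 MPa back pressure, and a 5–60% methanol/ammonium formate modifier gradient in CO2.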

IL-23R = biological target: T1, IL-23R (Homo sapiens, UniProt Q5VWK5); assay: IL23R Reporter Assay; type: cell-based; settings: HEK293 cells containing IL-23R, IL-12RP1 and STAT-inducible firefly luciferase reporter; 10 ng/mL IL-23 (EC90); 5 h at 37° C.; read-out: IL23R Reporter Assay
T1 construct: host or cells: HEK293
T1 sequence (Q5VWK5 24-629): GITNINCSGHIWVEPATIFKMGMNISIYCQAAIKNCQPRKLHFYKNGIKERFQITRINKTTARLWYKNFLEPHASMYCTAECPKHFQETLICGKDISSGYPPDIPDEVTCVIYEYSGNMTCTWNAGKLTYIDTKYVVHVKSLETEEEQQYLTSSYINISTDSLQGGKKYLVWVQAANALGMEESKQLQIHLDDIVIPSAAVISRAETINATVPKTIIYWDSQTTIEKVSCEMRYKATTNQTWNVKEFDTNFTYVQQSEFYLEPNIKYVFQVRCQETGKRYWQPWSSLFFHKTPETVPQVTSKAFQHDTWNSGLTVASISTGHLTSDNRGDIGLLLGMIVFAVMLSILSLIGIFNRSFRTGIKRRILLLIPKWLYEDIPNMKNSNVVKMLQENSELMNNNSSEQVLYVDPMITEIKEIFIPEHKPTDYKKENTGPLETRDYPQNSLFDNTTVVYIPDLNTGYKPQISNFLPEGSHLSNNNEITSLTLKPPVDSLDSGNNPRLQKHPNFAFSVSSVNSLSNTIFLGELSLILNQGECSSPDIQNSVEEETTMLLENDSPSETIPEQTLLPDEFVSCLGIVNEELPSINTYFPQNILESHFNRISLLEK

EPSA [1] [A^2] | IC50 (IL-23R) [nM] | SMILES
179 | 220 | CCCCCCCCCCCC(=O)N[C@@H](CCC(=O)NCCOCCOCC(=O)NCCOCCOCC(=O)NCCCC[C@H](NC(=O)C1(NC(=O)[C@H](Cc2ccc3ccccc3c2)NC(=O)[C@H](Cc2ccc(OCCCCC[N+](C)(C)C)cc2)NC(=O)[C@H]2NC(=O)[C@H](CCCCNC(C)=O)NC(=O)[C@H](Cc3c[nH]c4c(C)cccc34)NC(=O)[C@H]([C@@H](C)O)NC(=O)[C@H](CC(N)=O)NC(=O)[C@@H](NC(=O)CCOCCOCC[N+](C)(C)C)C(C)(C)SSC2(C)C)CCOCC1)C(=O)N[C@@H](CC(N)=O)C(=O)N[C@@H](Cc1cccnc1)C(=O)N(C)[C@@H](CCCCNC(=O)COCCOCCNC(=O)COCCOCCNC(=O)CC[C@H](NC(=O)CCCCCCCCCCC)C(=O)O)C(N)=O)C(=O)O [compound 349, cPEG3aCO-Pen(3)-N-T-7MeW-K(Ac)-Pen(3)-TMAPF-2Nal-THP-K(PEG2PEG2gEC12)-N-3Pya-NMeK(PEG2PEG2gEC12)-CONH2] ({Me3N+(CH2)2O(CH2)2O(CH2)2CO}-[Pen]NT[Trp(7-Me)]K(Ac)[Pen]Y(X3)[2Nal][Thp]K([AEEA-AEEA-γGlu-Lauroyl])N[3Pal][NMeK]([AEEA-AEEA-γGlu-Lauroyl])-NH2; disulfide 1-6)
174 | 280 | CCCCCCCCCCCC(=O)N[C@@H](CCC(=O)NCCOCCOCC(=O)NCCOCCOCC(=O)NCCCC[C@@H]1NC(=O)[C@@H](NC(=O)CCOCCOCC[N+](C)(C)C)C(C)(C)SSC(C)(C)[C@@H](C(=O)N[C@@H](Cc2ccc(OCCCCC[N+](C)(C)C)cc2)C(=O)N[C@@H](Cc2ccc3ccccc3c2)C(=O)NC2(C(=O)N[C@@H](CCCCN(C)C(C)=O)C(=O)N[C@@H](CC(N)=O)C(=O)N[C@@H](Cc3cccnc3)C(=O)N(C)[C@@H](CCCCNC(=O)COCCOCCNC(=O)COCCOCCNC(=O)CC[C@H](NC(=O)CCCCCCCCCCC)C(=O)O)C(N)=O)CCOCC2)NC(=O)[C@H](CCCCNC(C)=O)NC(=O)[C@H](Cc2c[nH]c3c(C)cccc23)NC(=O)[C@H]([C@@H](C)O)NC1=O)C(=O)O [compound 356, cPEG3aCO-Pen(3)-K(PEG2PEG2gEC12)-T-7MeW-K(Ac)-Pen(3)-TMAPF-2Nal-THP-K(NMeac)-N-3Pya-NMeK(PEG2PEG2gEC12)-CONH2] ({Me3N+(CH2)2O(CH2)2O(CH2)2CO}-[Pen]K([AEEA-AEEA-γGlu-Lauroyl])T[Trp(7-Me)]K(Ac)[Pen]Y(X3)[2Nal][Thp][Lys(Me)](Ac)N[3Pal][NMeK]([AEEA-AEEA-γGlu-Lauroyl])-NH2; disulfide 1-6)

Further lines, the molecule ahead of its results:

SMILES | EPSA [1] [A^2] | IC50 (IL-23R) [nM]
CC(=O)N(C)CCCC[C@H](NC(=O)C1(NC(=O)[C@H](Cc2ccc3ccccc3c2)NC(=O)[C@H](Cc2ccc(OCCCCC[N+](C)(C)C)cc2)NC(=O)[C@H]2NC(=O)[C@H](CCCNC(N)=O)NC(=O)[C@H](Cc3c[nH]c4c(C)cccc34)NC(=O)[C@H]([C@@H](C)O)NC(=O)[C@H](CC(=O)N(C)C)NC(=O)[C@@H](NC(=O)CCOCCOCC[N+](C)(C)C)C(C)(C)SSC2(C)C)CCOCC1)C(=O)N[C@@H](CC(N)=O)C(=O)N[C@@H](Cc1cccnc1)C(=O)N(C)CC(=O)N(C)C [compound 346, cPEG3aCO-Pen(3)-N(N(Me)2)-T-7MeW-Cit-Pen(3)-TMAPF-2Nal-THP-K(NMeAc)-N-3Pya-Sar-CON(Me)2] ({Me3N+(CH2)2O(CH2)2O(CH2)2CO}-[Pen]D(NMe2)T[Trp(7-Me)][Cit][Pen]Y(X3)[2Nal][Thp][Lys(Me)](Ac)N[3Pal][Sar]-NMe2; disulfide 1-6) | 158 | 1.8
CCCCCCCCCCCC(=O)N[C@@H](CCC(=O)NCCOCCOCC(=O)NCCOCCOCC(=O)NCCCC[C@@H]1NC(=O)[C@H](Cc2c[nH]c3c(C)cccc23)NC(=O)[C@H]([C@@H](C)O)NC(=O)[C@H](CC(=O)N(C)C)NC(=O)[C@@H](NC(=O)CCOCCOCC[N+](C)(C)C)C(C)(C)SSC(C)(C)[C@@H](C(=O)N[C@@H](Cc2ccc(OCCCCC[N+](C)(C)C)cc2)C(=O)N[C@@H](Cc2ccc3ccccc3c2)C(=O)NC2(C(=O)N[C@@H](CCCCN(C)C(C)=O)C(=O)N[C@@H](CC(N)=O)C(=O)N[C@@H](Cc3cccnc3)C(=O)N(C)[C@@H](CCCCNC(=O)COCCOCCNC(=O)COCCOCCNC(=O)CC[C@H](NC(=O)CCCCCCCCCCC)C(=O)O)C(N)=O)CCOCC2)NC1=O)C(=O)O [compound 352, cPEG3aCO-Pen(3)-N(N(Me)2)-T-7MeW-K(PEG2PEG2gEC12)-Pen(3)-TMAPF-2Nal-THP-K(NMeac)-N-3Pya-NMeK(PEG2PEG2gEC12)-CONH2] ({Me3N+(CH2)2O(CH2)2O(CH2)2CO}-[Pen]D(NMe2)T[Trp(7-Me)]K([AEEA-AEEA-γGlu-Lauroyl])[Pen]Y(X3)[2Nal][Thp][Lys(Me)](Ac)N[3Pal][NMeK]([AEEA-AEEA-γGlu-Lauroyl])-NH2; disulfide 1-6) | 179 | 190
CCCCCCCCCCCC(=O)N[C@@H](CCC(=O)NCCOCCOCCOCCOCCOCCOCCC(=O)NCCOCCOCC(=O)NCCCC[C@@H](C(N)=O)N(C)C(=O)[C@H](Cc1cccnc1)NC(=O)[C@H](CC(N)=O)NC(=O)[C@H](CCCCN(C)C(C)=O)NC(=O)C1(NC(=O)[C@H](Cc2ccc3ccccc3c2)NC(=O)[C@H](Cc2ccc(OCCCCC[N+](C)(C)C)cc2)NC(=O)[C@H]2NC(=O)[C@H](CCCCNC(C)=O)NC(=O)[C@H](Cc3c[nH]c4c(C)cccc34)NC(=O)[C@H]([C@@H](C)O)NC(=O)[C@H](CC(=O)N(C)C)NC(=O)[C@@H](NC(=O)CCOCCOCC[N+](C)(C)C)C(C)(C)SSC2(C)C)CCOCC1)C(=O)O [compound 360, cPEG3aCO-Pen(3)-N(N(Me)2)-T-7MeW-K(Ac)-Pen(3)-TMAPF-2Nal-THP-K(NMeac)-N-3Pya-NMeK(PEG2PEG6gEC12)-CONH2] ({Me3N+(CH2)2O(CH2)2O(CH2)2CO}-[Pen]D(NMe2)T[Trp(7-Me)]K(Ac)[Pen]Y(X3)[2Nal][Thp][Lys(Me)](Ac)N[3Pal][NMeK]([AEEA-PEG6-γGlu-Lauroyl])-NH2; disulfide 1-6) | 166 | 8.4
CCCCCCCCCCCCCC(=O)N[C@@H](CCC(=O)NCCOCCOCCOCCOCCOCCOCCC(=O)NCCOCCOCC(=O)NCCCC[C@@H](C(N)=O)N(C)C(=O)[C@H](Cc1cccnc1)NC(=O)[C@H](CC(N)=O)NC(=O)[C@H](CCCCN(C)C(C)=O)NC(=O)C1(NC(=O)[C@H](Cc2ccc3ccccc3c2)NC(=O)[C@H](Cc2ccc(OCCCCC[N+](C)(C)C)cc2)NC(=O)[C@H]2NC(=O)[C@H](CCCCNC(C)=O)NC(=O)[C@H](Cc3c[nH]c4c(C)cccc34)NC(=O)[C@H]([C@@H](C)O)NC(=O)[C@H](CC(=O)N(C)C)NC(=O)[C@@H](NC(=O)CCOCCOCC[N+](C)(C)C)C(C)(C)SSC2(C)C)CCOCC1)C(=O)O [compound 361, cPEG3aCO-Pen(3)-N(N(Me)2)-T-7MeW-K(Ac)-Pen(3)-TMAPF-2Nal-THP-K(NMeac)-N-3Pya-NMeK(PEG2PEG6gEC14)-CONH2] ({Me3N+(CH2)2O(CH2)2O(CH2)2CO}-[Pen]D(NMe2)T[Trp(7-Me)]K(Ac)[Pen]Y(X3)[2Nal][Thp][Lys(Me)](Ac)N[3Pal][NMeK]([AEEA-PEG6-γGlu-Myristoyl])-NH2; disulfide 1-6) | 168 | 12
CCCCCCCCCCCC(=O)N[C@@H](CCC(=O)NCCOCCOCC(=O)NCCOCCOCC(=O)NCCCC[C@@H](C(N)=O)N(C)C(=O)[C@H](Cc1cccnc1)NC(=O)[C@H](CC(N)=O)NC(=O)[C@H](CCCCN(C)C(C)=O)NC(=O)C1(NC(=O)[C@H](Cc2ccc3ccccc3c2)NC(=O)[C@H](Cc2ccc(OCCCCC[N+](C)(C)C)cc2)NC(=O)[C@H]2NC(=O)[C@H](CCCCNC(C)=O)NC(=O)[C@H](Cc3c[nH]c4c(C)cccc34)NC(=O)[C@H]([C@@H](C)O)NC(=O)[C@H](CC(N)=O)NC(=O)[C@@H](NC(=O)CCOCCOCC[N+](C)(C)C)C(C)(C)SSC2(C)C)CCOCC1)C(=O)O [compound 371, cPEG3aCO-Pen(3)-N-T-7MeW-K(Ac)-Pen(3)-TMAPF-2Nal-THP-K(NMeac)-N-3Pya-NMeK(PEG2PEG2gEC12)-CONH2] ({Me3N+(CH2)2O(CH2)2O(CH2)2CO}-[Pen]NT[Trp(7-Me)]K(Ac)[Pen]Y(X3)[2Nal][Thp][Lys(Me)](Ac)N[3Pal][NMeK]([AEEA-AEEA-γGlu-Lauroyl])-NH2; disulfide 1-6) | 182 | 5.5
